Experimental data from patent US5215994A, “Angiotenin II antagonizing heterocyclic derivatives” (Fujisawa Pharmaceutical Co., Ltd., priority 1990, dated 1993).

System: contractile response to angiotensin II in excised guinea pig ileum
Experiment: Inhibition by the antagonist of contractile response to angiotensin II in excised guinea pig ileum
Details: excised guinea pig ileum longitudinal strips; angiotensin II 10^-8 g/ml; test compound added 3 minutes prior; atropine present; 37° C.; read-out: IC50 (inhibition of angiotensin II contraction, percentage change to control response)
Protocol: [2] Inhibition by the antagonist of contractile response to angiotensin II in excised guinea pig ileum
Male guinea pigs weighing 300 g to 500 g were sacrificed by decapitation and the ileum were excised. Longitudial strips of the ileum (length: 2 cm) were placed in a 25 ml organ bath containing Tyrode's solution of the following composition (mM): NaCl, 137; KCl, 2.7; CaCl2, 1.8; MgCl2, 1.1; NaH2 PO4, 0.4; NaHCO3, 12; Glucose, 5.6.
The bath was maintained at 37° C. and bubbled with 95% O2 +5% CO2. The strips was stretched with a resting force of 0.5 g, and the isometric contraction were recorded via force development transducer on an ink-writing recorder. The preparation was equilibrated in Tyrode's solution mentioned above for 30 minutes, and then exposed to atropine (3.2×10^-7 g/ml) Five minutes later, the response for angiotensin II (1×10^-8 g/ml) was obtained and the preparation was washed a few times. This procedure was repeated twice. […] The inhibition of the test compound for angiotensin II contraction were expressed as a percentage change to control response, and IC50 (M) was calculated.

Work on CCCCc1nc2c(C)ccnc2n1Cc1ccc(-n2cc(Br)cc2-c2nnn[nH]2)cc1 [Compound 1, 3-[4-[4-Bromo-2-(1H-tetrazol-5-yl)-1-pyrrolyl]benzyl]-2-butyl-7-methyl-3H-imidazo[4,5-b]pyridine] yielded an IC50 of 1.7 nM.
